Results as given in patent US20060171966A1, “Variants of vibrio cholerae 01 biotype e1 tor with attributes of classical biotype” (priority 2002, published 2006).

Columns and labels:
Type in all cases: cell-based, Vibrio cholerae O1
[1] = system: V. cholerae O1 Matlab I; test: Sensitivity to polymyxin B (50U), Matlab I; settings: 2 strains
From the text: (§1) […]. The basis of a retrospective examination of these strains was their unusual response to polymyxin B (50U), chicken cell agglutination (CCA), Voges-Proskauer (VP) reaction, and sensitivity to group IV and V phages, all of which are phenotypic traits commonly used to differentiate between the classical and El Tor biotypes. The 24 strains were reexamined for the above phenotypic characteristics by standard procedures.
(§2) We examined the commonly used phenotypic traits used to distinguish between the El Tor and classical biotypes of V. cholerae and differentiated the 24 strains into three types (Table 1), which we classified as Matlab types I, II, and III. Matlab type I included two strains belonging to the Inaba serotype that were resistant to both the El Tor-specific group IV and the classical biotype specific group V phages, negative by the CCA and VP tests (both are classical traits), and resistant to polymyxin B (an El Tor trait).

[2] = system: V. cholerae O1 Matlab II; test: Sensitivity to polymyxin B (50U), Matlab II; settings: 1 strain
From the text: as §1, §2

[3] = system: V. cholerae O1 Matlab III; test: Sensitivity to polymyxin B (50U), Matlab III; settings: 21 strains
From the text: as §1, §2

polymyxin B
Sensitivity to polymyxin B (50U) [1]: resistant
Sensitivity to polymyxin B (50U) [2]: sensitive
Sensitivity to polymyxin B (50U) [3]: typical of the El Tor biotype
